From the CheMixHub viscosity set

Assay: xn = mol fraction of the nth substance listed

Nc1ccccc1 + CN(C)C=O
viscosity [mPa·s], 101.33 kPa
Details	x2 = 0.1013	x2 = 0.203	x2 = 0.3061	x2 = 0.4006	x2 = 0.5013	x2 = 0.6024	x2 = 0.6967	x2 = 0.8002	x2 = 0.9059
303.15 K	2.783	2.508	2.273	2.048	1.812	1.571	1.341	1.115	0.908
313.15 K	2.131	1.957	1.793	1.64	1.474	1.3	1.135	0.96	0.801

COCCOCCOCCO + CN(CCO)CCO
viscosity [mPa·s], 101.33 kPa
Details	x2 = 0.1004	x2 = 0.2133	x2 = 0.2964	x2 = 0.3993	x2 = 0.4991	x2 = 0.5993	x2 = 0.7001	x2 = 0.8006	x2 = 0.9002
298.15 K	6.741	8.012	9.103	10.85	13.35	17.08	22.81	31.15	50.17
313.15 K	4.491	5.038	5.882	6.508	7.732	9.412	12.03	15.99	22.23
323.15 K	3.445	3.861	4.307	4.93	5.674	6.845	8.383	10.78	14.36

CCNCC + CNC(C)=O
308.15 K, 101 kPa
Details	viscosity [mPa·s]
x2 = 0.0413	0.2729
x2 = 0.1815	0.4061
x2 = 0.3505	0.6727
x2 = 0.5056	1.02
x2 = 0.5776	1.254
x2 = 0.6715	1.563
x2 = 0.7881	2.064
x2 = 0.8957	2.614
x2 = 0.9724	3.097
